# Data from a melting point compilation (Tetko et al.; mined from patent text by program, amines drawn as free bases though some values may be those of a salt).
row,melting point [°C],Structure (SMILES)
1,198 to 200,COC(=O)c1ccc(NNC(=O)C(C)C)cc1S(N)(=O)=O
2,181 to 184,Cc1noc(NS(=O)(=O)c2cc(S(=O)(=O)c3ccccc3)cs2)c1Br
3,172 to 174,COc1cc(OC)c(F)c(N=Cc2cnc(SC)nc2NC2CC2)c1F
4,110 to 113,COC(=O)C(Cl)=NNc1ccc(F)cc1
5,183 to 185,CCc1nnc2ccc(-c3cccc(C(F)(F)F)c3)nn12
6,155 to 159,CCC(=O)Oc1ccc(N=c2scc(-c3ccc(Cl)c(S(=O)(=O)N(C)C)c3)n2C)cc1
7,178 to 181,CCCSc1ncc(CC(NC(=O)CCC)C(=O)O)n1Cc1ccccc1Cl (configuration not stated)
8,212 to 214,Cc1n[nH]c(-c2ccccc2)c1-c1ccncc1
9,126 to 128,CCC(CC)C(c1ccnn1-c1ccccc1)N(C)S(=O)(=O)c1ccc(Cl)s1 (configuration not stated)
10,126 to 127,Cc1cc(C(C)(C)C#N)cc(C(C)(C)C#N)c1
11,146 to 147,CS(=O)(=O)c1c(Cl)nc(Cl)nc1Cl
12,54,Nc1c(Cl)nc(C2CC2)nc1Cl
13,149 to 152,CC(=O)OC1=C([C@H]2CC[C@H](c3ccc(Cl)cc3)CC2)C(=O)c2ccccc2C1=O
14,295 to 297,O=c1ccc2cnccc2[nH]1
15,156 to 158,CC(C)(C)OC(=O)NC1CCc2ccccc2C(=Cc2ccccc2)C1=O (configuration not stated)
16,182 to 183,O=C(O)CNc1ccc(Cl)cc1C(=O)O
17,39 to 41,COC(=O)COc1ccc(C=O)cc1
18,145 to 147,CCCC1=C(C(=O)OCC)C(c2ccccc2Cl)c2cn(C(=O)Nc3ccccc3)nc2N1 (configuration not stated)
19,171 to 172,COc1cc(/C=C2/C(=O)OC[C@H]2Cc2cc(OC)c(OCc3ccc([N+](=O)[O-])cc3)c(OCc3ccc([N+](=O)[O-])cc3)c2)cc(OC)c1OC
20,62 to 64,CNC(=O)c1cc2c(Oc3ccc(Cl)c(F)c3)cncc2s1
21,150 to 151,CC(C)(C)OC(=O)Nc1ccc2ccc(S(=O)(=O)N(Cc3ccccc3)Cc3ccccc3)cc2c1Br
22,160 to 161,Cc1ccc(-c2cc(C(F)F)nn2-c2ccc(S(N)(=O)=O)c(F)c2)cc1Cl
23,133 to 135,CCOC(=O)Cc1c(C)n(Cc2ccc(Cl)cc2)c2cccc(OCc3csc(-c4ccc(Cl)cc4)n3)c12

# The remaining lines, values behind:
row,Structure (SMILES),melting point [°C]
1,O=C(O)c1cnc2cc(C3CCCCC3)ccc2c1O,241 to 243
2,CS(=O)CC(=O)c1ccccc1N (configuration not stated),99 to 100
3,CC(NC(=O)Cc1cc(F)cc(F)c1)C(=O)NC1C(=O)NCc2cc(F)ccc21 (configuration not stated),195 to 200
4,CCCC(=O)N(CC)c1cccc(-c2ccc3nnc(C)n3n2)c1,127 to 129
5,Cn1c2cccc(C#N)c2c2nc3ccccc3nc21,237
6,CCOC(=O)C1(O)CC(C(F)(F)F)=NN1c1ncccc1Cl (configuration not stated),78 to 78.5
7,NCCCN1CCN(C(c2ccccc2)c2ccccc2)CC1,62 to 63
8,Cc1cnc2c(c1)C(=O)c1cc(-c3ccccc3)c(=O)[nH]c1C2=O,275
9,CCOP(=O)(Cc1cc(Cl)c(O)c(C(C)(C)C)c1)OCC,116
10,C=CCC(O)CCCCCCCCCCCCCCCCC (configuration not stated),48 to 50.5
11,CCCN(CCC)C1Cn2cnc3cccc(c32)C1C (configuration not stated),78 to 84
12,NS(=O)(=O)Oc1ccc(Cl)cc1,103 to 104
13,CCCNc1nc(N)c2ncn(C3C=CCCC3)c2n1 (configuration not stated),73 to 80
14,O=C(c1c[nH]c2cc(Cl)ccc12)C(F)(F)F,256 to 258
15,CCOC(C#Cc1cc(OC)c(OC)c(OC)c1)OCC,62.5 to 63
16,CN1CCCN(C(=O)c2ccc3n2Cc2ccccc2N(C(=O)c2ccc(C4CCCCC4)cc2)C3)CC1,133 to 136
17,CC(C)(O)c1ccc(-c2cnc3[nH]c(=O)n(CCC4CCOCC4)c3n2)cn1,132 to 133
18,O=C1CCCC2=C1C(c1ccc(F)cc1O)C1=C(CCS1)N2 (configuration not stated),> 250
19,CCCc1sc(-c2ccccc2)nc1OC(=O)NC,55 to 58
